The results in this text go back to PMC6891286, “Towards the Development of an In vivo Chemical Probe for Cyclin G Associated Kinase (GAK)” (Molecules, 2019).

Read-outs that look alike come from different tables or passages of the source. Some results are limits rather than exact numbers.

The target of one series is STK16 (Homo sapiens, UniProt O75716). Description: NAK family TR-FRET binding displacement assay. The following applies: NAK family FRET screening; read-out: Binding displacement assay STK16 Ki.
Another series deals with T1, GAK (Homo sapiens, UniProt O14976).
T1 sequence (O14976 1-1311): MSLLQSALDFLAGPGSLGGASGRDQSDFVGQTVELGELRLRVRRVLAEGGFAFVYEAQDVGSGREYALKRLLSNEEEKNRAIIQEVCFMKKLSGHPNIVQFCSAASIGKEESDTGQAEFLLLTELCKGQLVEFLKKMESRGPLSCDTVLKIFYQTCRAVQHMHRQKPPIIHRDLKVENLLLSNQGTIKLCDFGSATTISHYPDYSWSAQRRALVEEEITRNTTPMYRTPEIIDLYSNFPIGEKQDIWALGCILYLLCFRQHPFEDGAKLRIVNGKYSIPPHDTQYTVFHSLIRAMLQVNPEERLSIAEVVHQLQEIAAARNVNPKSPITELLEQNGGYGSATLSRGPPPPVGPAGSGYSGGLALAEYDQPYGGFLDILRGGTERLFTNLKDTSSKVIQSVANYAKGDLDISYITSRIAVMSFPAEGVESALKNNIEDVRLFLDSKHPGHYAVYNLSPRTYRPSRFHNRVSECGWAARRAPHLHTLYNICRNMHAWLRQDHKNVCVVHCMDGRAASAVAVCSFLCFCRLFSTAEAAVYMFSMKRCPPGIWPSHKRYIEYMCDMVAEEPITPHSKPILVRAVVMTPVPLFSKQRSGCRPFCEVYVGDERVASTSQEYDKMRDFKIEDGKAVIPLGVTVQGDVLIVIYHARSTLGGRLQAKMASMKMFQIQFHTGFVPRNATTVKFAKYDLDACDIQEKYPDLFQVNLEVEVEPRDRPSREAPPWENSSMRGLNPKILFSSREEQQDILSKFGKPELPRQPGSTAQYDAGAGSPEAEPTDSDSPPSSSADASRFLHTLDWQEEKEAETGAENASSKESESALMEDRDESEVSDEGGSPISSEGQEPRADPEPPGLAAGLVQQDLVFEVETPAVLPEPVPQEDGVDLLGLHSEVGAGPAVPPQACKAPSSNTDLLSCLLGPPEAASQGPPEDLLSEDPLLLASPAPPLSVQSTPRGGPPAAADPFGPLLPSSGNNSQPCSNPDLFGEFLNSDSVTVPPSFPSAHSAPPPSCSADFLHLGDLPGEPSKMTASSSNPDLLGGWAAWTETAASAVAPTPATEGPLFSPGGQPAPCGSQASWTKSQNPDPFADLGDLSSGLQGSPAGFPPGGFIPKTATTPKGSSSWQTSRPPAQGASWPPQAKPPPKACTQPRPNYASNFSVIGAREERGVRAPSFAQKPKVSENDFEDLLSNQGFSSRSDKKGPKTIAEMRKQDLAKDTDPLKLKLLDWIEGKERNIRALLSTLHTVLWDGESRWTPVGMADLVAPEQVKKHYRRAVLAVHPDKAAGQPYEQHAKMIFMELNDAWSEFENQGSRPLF
Description: TR-FRET ligand-binding displacement assay.

Series [1] in a line: mouse liver microsome metabolic stability. The following applies: mouse liver microsomes; for T1/2 Ratio (+) ABT / T1/2 Ratio (−) ABT: normalized to propranolol; for T1/2 Ratio: normalization with respect to internal control (propranolol); for CLint scaled / half-life: mouse; for half-life: mean average, n = 2. The procedure:
SGC-GAK-1 (1) was incubated with MLMs in the presence or absence of added NADPH, and the compound was quantified at various time points over an hour.
The metabolic stability of the 4-anilinoquinolines (8–13) were evaluated in MLMs (Table 1). Half-lives for metabolic clearance were normalized to propranolol in each experimental run to control for variations in the MLM preparations.

Another series is described as follows: Kinetic Solubility. The settings on record: pH 7.4, aqueous buffer, kinetic from dmso stock, PBS pH7.4 (100 µM). The format is physicochemical.
Another series concerns the target AAK1 (Homo sapiens, UniProt Q2M2I8). Description: NAK family TR-FRET binding displacement assay. The settings on record: NAK family FRET screening.
In a further series the target is BMP2K (Homo sapiens, UniProt Q9NSY1). Description: NAK family TR-FRET binding displacement assay.
For the next series, the target named is T2, CAMKK2 (Homo sapiens, UniProt Q96RR4).
T2 construct: purchased Eurofins DiscoverX (KINOMEscan)
The series can be described thus: KINOMEscan. The format is binding. The settings on record: 35 at 1 µM; read-out: % inhibition. The procedure:
(§1) KinomeScan Assay on 35 was performed as previously described at EuroFins DiscoverX (Fremont, CA, USA).

The target in series [2] is T3, RSK4(Kin.Dom.2-C-terminal) (Homo sapiens, UniProt Q9UK32).
T3 construct: RSK4(Kin.Dom.2-C-terminal); purchased Eurofins DiscoverX (KINOMEscan)
The series can be described thus: KINOMEscan. The series is classed as binding. The following applies: 35 at 1 µM; read-out: % inhibition. The procedure: as §1

For a further series, the target named is T4, ACVR1 (Homo sapiens, UniProt Q04771).
T4 construct: purchased Eurofins DiscoverX (KINOMEscan)
The series can be described thus: KINOMEscan. The series is classed as binding. The settings on record: 35 at 1 µM; read-out: % inhibition. The procedure: as §1

Another series concerns the target T5, VEGFR2 (Homo sapiens, UniProt P35968).
T5 construct: purchased Eurofins DiscoverX (KINOMEscan)
The series can be described thus: KINOMEscan. The settings on record: 35 at 1 µM; read-out: % inhibition. The series is classed as binding. The procedure: as §1

A further series addresses T6, MARK2 (Homo sapiens, UniProt Q7KZI7).
T6 construct: purchased Eurofins DiscoverX (KINOMEscan)
Description: KINOMEscan. The series is classed as binding. The following applies: 35 at 1 µM; read-out: % inhibition. The procedure: as §1

For another series, the target named is T7, FGFR1 (Homo sapiens, UniProt P11362).
T7 construct: purchased Eurofins DiscoverX (KINOMEscan)
Description: KINOMEscan. The series is classed as binding. The following applies: 35 at 1 µM; read-out: % inhibition. The procedure: as §1

The next series concerns the target T8, STK35 (Homo sapiens, UniProt Q8TDR2).
T8 construct: purchased Eurofins DiscoverX (KINOMEscan)
The series can be described thus: KINOMEscan. The following applies: 35 at 1 µM; read-out: % inhibition. The series is classed as binding. The procedure: as §1

In another series the target is T9, NIK (Homo sapiens, UniProt Q99558).
T9 construct: purchased Eurofins DiscoverX (KINOMEscan)
Description: KINOMEscan. The format is binding. The following applies: 35 at 1 µM; read-out: % inhibition. The procedure: as §1

A further series addresses T10, RIOK2 (Homo sapiens, UniProt Q9BVS4).
T10 construct: purchased Eurofins DiscoverX (KINOMEscan)
Description: KINOMEscan. The format is binding. The settings on record: 35 at 1 µM; read-out: % inhibition. The procedure: as §1

Another series concerns the target T11, MARK3 (Homo sapiens, UniProt P27448).
T11 construct: purchased Eurofins DiscoverX (KINOMEscan)
The series can be described thus: KINOMEscan. The format is binding. The following applies: 35 at 1 µM; read-out: % inhibition. The procedure: as §1

A further series addresses T12, EGFR(L858R,T790M) (Homo sapiens, UniProt P00533, L858R/T790M).
T12 construct: purchased Eurofins DiscoverX (KINOMEscan)
The series can be described thus: KINOMEscan. The settings on record: 35 at 1 µM; read-out: % inhibition. The series is classed as binding. The procedure: as §1

A further series has as its target T13, TSSK1B (Homo sapiens, UniProt Q9BXA7).
T13 construct: purchased Eurofins DiscoverX (KINOMEscan)
Description: KINOMEscan. The format is binding. The following applies: 35 at 1 µM; read-out: % inhibition. The procedure:
as §1

The next series concerns the target T14, ERN1 (Homo sapiens, UniProt O75460).
T14 construct: purchased Eurofins DiscoverX (KINOMEscan)
The series can be described thus: KINOMEscan. The series is classed as binding. The settings on record: 35 at 1 µM; read-out: % inhibition. The procedure:
as §1

A further series concerns the target T15, CSNK2A1 (Homo sapiens, UniProt P68400).
T15 construct: purchased Eurofins DiscoverX (KINOMEscan)
Description: KINOMEscan. The series is classed as binding. The following applies: 35 at 1 µM; read-out: % inhibition. The procedure:
as §1

Setting [3] is: Clint (mL/min/kg) (+) ABT, (+) ABT.
Setting [4] is: Clint (mL/min/kg) (−) ABT, (−) ABT.
Setting [5] is: T1/2 (min), mouse liver microsomes with NADPH.
[6] abbreviates: read-out: Kinetic Solubility µM.
[7] abbreviates: read-out: Kinetic Solubility µg/mL.

Sequence of BMP2K (Q9NSY1 whole entry): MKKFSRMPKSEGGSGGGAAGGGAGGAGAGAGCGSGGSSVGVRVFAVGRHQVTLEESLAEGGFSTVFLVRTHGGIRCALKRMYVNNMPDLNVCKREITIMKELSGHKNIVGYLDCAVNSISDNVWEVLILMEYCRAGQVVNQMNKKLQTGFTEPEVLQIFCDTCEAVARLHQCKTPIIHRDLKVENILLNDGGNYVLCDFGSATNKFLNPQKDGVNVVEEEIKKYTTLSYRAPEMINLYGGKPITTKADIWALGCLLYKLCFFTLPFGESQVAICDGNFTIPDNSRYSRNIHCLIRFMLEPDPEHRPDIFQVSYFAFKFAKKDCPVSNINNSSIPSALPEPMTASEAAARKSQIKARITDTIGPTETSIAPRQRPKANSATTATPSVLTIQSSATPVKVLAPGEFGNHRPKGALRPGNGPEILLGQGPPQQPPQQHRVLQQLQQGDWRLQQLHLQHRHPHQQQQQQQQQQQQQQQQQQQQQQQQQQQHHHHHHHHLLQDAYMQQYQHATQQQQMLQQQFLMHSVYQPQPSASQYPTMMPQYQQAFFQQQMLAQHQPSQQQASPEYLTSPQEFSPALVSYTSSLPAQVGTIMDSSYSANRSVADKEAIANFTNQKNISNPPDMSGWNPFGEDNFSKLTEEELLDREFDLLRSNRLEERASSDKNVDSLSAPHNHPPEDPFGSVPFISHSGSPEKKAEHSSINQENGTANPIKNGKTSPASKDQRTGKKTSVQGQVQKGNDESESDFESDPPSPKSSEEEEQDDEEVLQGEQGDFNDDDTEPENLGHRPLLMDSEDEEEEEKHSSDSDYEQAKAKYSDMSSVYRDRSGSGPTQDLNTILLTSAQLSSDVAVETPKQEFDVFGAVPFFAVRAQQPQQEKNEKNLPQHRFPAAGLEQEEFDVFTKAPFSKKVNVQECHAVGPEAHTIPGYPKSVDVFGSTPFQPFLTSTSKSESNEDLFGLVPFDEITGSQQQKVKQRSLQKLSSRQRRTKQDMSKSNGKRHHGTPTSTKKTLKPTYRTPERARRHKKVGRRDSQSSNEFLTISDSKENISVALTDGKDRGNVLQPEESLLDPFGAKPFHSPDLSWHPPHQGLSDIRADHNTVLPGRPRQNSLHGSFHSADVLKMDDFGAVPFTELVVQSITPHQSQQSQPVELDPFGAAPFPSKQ
Sequence of AAK1 (Q2M2I8 whole entry): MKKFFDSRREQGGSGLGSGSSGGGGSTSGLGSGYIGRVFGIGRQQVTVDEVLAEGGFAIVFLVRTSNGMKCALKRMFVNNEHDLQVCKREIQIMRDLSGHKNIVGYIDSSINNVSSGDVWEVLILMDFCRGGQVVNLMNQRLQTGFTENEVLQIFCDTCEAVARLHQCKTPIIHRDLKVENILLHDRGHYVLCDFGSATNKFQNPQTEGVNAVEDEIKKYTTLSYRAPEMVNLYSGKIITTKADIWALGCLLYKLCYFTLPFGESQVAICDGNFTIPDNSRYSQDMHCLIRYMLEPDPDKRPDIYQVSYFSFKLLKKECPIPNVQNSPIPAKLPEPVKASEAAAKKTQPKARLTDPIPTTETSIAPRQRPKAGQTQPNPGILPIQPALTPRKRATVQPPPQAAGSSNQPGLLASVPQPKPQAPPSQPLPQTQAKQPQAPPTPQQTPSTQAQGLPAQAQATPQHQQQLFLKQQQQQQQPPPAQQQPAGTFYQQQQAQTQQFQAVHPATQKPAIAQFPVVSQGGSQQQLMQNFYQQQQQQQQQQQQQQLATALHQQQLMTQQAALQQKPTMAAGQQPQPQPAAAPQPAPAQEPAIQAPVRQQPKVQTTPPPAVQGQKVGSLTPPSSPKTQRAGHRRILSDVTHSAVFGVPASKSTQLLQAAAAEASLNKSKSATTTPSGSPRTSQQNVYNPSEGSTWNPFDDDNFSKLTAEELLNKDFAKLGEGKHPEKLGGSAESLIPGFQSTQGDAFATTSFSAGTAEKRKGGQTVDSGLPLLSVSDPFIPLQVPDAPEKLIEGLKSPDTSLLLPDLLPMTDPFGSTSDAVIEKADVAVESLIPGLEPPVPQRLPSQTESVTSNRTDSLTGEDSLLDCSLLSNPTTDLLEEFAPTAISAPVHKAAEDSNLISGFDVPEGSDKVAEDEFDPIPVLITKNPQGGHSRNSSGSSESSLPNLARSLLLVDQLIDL
Sequence of STK16 (O75716 whole entry): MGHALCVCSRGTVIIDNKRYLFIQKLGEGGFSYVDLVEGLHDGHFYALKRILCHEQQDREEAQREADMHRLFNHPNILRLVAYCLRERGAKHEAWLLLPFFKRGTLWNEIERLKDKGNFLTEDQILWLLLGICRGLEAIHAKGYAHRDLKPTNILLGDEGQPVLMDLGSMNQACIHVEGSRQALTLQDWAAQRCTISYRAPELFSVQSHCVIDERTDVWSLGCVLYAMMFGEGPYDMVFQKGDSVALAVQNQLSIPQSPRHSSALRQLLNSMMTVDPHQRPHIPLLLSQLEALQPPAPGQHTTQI
T3 sequence (Q9UK32 401-745): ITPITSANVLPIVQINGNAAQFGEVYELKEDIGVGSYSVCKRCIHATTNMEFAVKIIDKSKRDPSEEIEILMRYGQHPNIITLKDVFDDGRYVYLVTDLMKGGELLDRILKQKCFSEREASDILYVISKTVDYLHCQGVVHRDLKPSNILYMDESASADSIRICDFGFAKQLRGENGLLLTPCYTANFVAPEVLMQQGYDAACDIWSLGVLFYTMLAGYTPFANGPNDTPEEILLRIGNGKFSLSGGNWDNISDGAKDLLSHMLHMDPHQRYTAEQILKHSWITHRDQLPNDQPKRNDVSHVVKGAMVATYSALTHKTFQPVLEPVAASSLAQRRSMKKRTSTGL
T14 sequence (O75460 19-977): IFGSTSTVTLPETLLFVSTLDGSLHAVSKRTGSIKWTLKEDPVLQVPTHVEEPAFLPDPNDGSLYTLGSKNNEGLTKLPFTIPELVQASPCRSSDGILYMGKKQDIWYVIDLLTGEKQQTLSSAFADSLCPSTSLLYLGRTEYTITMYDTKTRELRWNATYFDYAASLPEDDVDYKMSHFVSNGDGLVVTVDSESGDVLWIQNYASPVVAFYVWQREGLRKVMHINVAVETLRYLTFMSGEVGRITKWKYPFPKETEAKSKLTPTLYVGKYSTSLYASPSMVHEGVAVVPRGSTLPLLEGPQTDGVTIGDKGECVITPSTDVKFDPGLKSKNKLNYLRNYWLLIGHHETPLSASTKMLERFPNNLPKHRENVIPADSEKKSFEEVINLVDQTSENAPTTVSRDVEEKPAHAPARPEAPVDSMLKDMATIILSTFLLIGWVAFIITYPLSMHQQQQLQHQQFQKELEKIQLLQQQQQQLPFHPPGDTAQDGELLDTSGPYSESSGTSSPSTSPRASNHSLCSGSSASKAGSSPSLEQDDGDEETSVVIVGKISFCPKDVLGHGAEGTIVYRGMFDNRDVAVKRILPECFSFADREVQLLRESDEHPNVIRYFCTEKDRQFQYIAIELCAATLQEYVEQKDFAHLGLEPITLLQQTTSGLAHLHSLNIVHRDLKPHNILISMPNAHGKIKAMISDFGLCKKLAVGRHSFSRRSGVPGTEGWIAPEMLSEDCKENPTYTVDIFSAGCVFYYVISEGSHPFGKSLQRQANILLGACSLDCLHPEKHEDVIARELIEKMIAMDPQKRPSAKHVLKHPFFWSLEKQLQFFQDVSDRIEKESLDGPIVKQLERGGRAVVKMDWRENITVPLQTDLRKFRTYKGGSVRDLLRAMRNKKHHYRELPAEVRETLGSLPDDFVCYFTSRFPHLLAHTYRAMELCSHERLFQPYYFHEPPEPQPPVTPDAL
T10 sequence (Q9BVS4 whole entry): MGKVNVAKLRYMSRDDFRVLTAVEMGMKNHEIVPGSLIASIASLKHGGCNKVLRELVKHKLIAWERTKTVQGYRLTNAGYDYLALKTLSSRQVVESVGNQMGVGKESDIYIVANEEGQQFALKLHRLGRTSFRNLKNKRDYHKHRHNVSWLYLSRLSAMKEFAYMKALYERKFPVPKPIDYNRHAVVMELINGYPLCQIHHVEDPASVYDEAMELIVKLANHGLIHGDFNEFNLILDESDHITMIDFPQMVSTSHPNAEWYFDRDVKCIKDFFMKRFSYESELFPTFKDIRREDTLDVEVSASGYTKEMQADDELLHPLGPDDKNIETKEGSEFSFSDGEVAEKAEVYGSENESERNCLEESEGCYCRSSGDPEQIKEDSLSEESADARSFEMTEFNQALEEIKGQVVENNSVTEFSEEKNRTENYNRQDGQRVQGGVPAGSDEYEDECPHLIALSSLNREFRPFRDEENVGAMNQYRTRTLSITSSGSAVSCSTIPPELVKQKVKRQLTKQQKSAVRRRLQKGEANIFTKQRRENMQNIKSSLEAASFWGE
T6 sequence (Q7KZI7 whole entry): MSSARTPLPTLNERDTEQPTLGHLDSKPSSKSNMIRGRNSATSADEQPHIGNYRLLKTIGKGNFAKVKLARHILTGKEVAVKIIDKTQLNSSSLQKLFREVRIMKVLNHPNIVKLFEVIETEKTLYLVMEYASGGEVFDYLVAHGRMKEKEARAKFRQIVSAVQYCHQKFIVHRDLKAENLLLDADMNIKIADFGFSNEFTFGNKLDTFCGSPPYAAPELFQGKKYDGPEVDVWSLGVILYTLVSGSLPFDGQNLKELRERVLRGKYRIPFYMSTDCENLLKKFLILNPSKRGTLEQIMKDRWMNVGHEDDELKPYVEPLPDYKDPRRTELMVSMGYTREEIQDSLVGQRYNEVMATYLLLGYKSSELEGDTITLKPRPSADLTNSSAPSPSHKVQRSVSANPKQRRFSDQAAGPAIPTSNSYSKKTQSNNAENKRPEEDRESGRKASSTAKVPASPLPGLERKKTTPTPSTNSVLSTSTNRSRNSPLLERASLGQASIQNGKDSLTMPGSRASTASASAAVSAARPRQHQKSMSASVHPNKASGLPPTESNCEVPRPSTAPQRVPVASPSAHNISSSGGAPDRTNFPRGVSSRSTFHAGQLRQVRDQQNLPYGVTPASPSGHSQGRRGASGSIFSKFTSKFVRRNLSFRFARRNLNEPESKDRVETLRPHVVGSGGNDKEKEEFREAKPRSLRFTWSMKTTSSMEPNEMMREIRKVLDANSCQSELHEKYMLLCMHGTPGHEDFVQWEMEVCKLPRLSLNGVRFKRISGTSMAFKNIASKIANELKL

For the compound `COc1cc2nccc(Nc3cc(OC)c(OC)c(OC)c3)c2cc1OC` [Compound 8], the inhibition constant Ki at STK16 was > 100 µM; at GAK (NAK family FRET screening, read-out: Binding displacement assay GAK Ki), 0.00054 µM; on AAK1 it was 28 µM; on BMP2K it was 63 µM. In series [1] ((+) ABT), the “T1/2 Ratio (+) ABT” value is on record as 14.7. Also, the “T1/2 Ratio (−) ABT” value in series [1] ((−) ABT) worked out at 1.3. For the same compound, the “T1/2 Ratio” value in series [1] was found to be 1.6. Besides, the CLint scaled was < 28 mL/min/kg in series [1] (setting [3]) and 320 mL/min/kg in [1] (setting [4]). The half-life in series [1] (T1/2 (min) (+) ABT, (+) ABT) was > 200 min; in [1] (T1/2 (min) (−) ABT, (−) ABT), 18 min; in [1] (setting [5]) it was 12.2 min. Also, the solubility kinetic in the series “Kinetic Solubility” (setting [6]) is 128 µM; in “Kinetic Solubility” (setting [7]) it was 47.6 µg/mL.

As for `Brc1ccc2nccc(Nc3ccc4cn[nH]c4c3)c2c1` [Compound 35, 6-Bromo-N-(1H-indazol-6-yl)quinolin-4-amine], the inhibition constant (Ki) worked out at 7.4 µM on STK16; 0.02 µM at GAK (TR-FRET assay, read-out: Biochemical GAK Ki); 2.1 µM at AAK1; 6.5 µM at BMP2K. Also, the “T1/2 ratios fold higher than 9” value in series [1] was ≥ 2 fold. Also, in series [1] ((+) ABT), the “T1/2 Ratio (+) ABT” value turned out to be 17.5. In [1] ((−) ABT), the “T1/2 Ratio (−) ABT” value worked out at 9.8. Further, the “T1/2 Ratio” value in [1] is reported as 9.8. The CLint scaled is 35 mL/min/kg in [1] (setting [3]) and 120 mL/min/kg in series [1] (setting [4]). In addition, the half-life stood at 170 min in series [1] (T1/2 (min) (+) ABT, (+) ABT); 46 min in series [1] (T1/2 (min) (−) ABT, (−) ABT); 45.6 min in [1] (setting [5]). The solubility kinetic in “Kinetic Solubility” (setting [6]) is 12.3 µM; in “Kinetic Solubility” (setting [7]) it was 4.2 µg/mL. Also, the activity at 1 µM at CAMKK2 is 100%; in series [2], 81%; on ACVR1 it was 97%; at VEGFR2 it was 100%; on MARK2, 100%; on FGFR1, 100%. The activity at 1 µM at STK35 worked out at 100%; on NIK, 100%; on RIOK2, 100%; on MARK3 it was 100%; at EGFR(L858R,T790M), 98%; at TSSK1B, 100%. The activity at 1 µM at ERN1 stood at 91%; at CSNK2A1, 100%.
